Assay results: patent publication US8178506B2, “Oligomeric compounds and compositions for use in modulation of small non-coding RNAs” (Regulus Therapeutics Inc., priority 2003, dated 2012)
In the oligonucleotide strings, read from the 5' end, every base follows the letter of its sugar. An asterisk marks phosphorothioate; unmarked linkages are phosphodiester. Other units and linkages are bracketed, terminal groups are in braces. A string of capitals states the bases alone. e = 2'-O-(2-methoxyethyl) (MOE); [5mC] = 5-methylcytosine

What was measured:
Format in all cases: cell-based, human
aP2 = aP2 mRNA expression in adipocytes (real-time PCR); conditions: for aP2 mRNA: Table 75
Method: (§1) Expression of the four hallmark genes, HSL, aP2, Glut4, and PPARγ, is also measured in adipocytes transfected with oligomeric compounds of the invention. Cells are lysed on day nine post-transfection and total RNA is harvested. The amount of total RNA in each sample is determined using a Ribogreen Assay (Invitrogen Life Technologies, Carlsbad, Calif.).
(§2) For assaying adipocyte differentiation, expression of the four hallmark genes, HSL, aP2, Glut4, and PPARγ, as well as triglyceride (TG) accumulation and leptin secretion were measured in adipocytes transfected with the uniform 2′-MOE phosphorothioate (PS) oligomeric compounds previously described. Cells are lysed on day nine post-transfection, in a guanadinium-containing buffer and total RNA is harvested. Real-time PCR is performed (Applied Biosystems, Prism 7700) on the total RNA using the following primer/probe sets for the adipocyte differentiation hallmark genes: (aP2): forward 5′-GGTGGTGGAATGCGTCATG-3′ (SEQ ID NO: 746), reverse 5′-[…]-3′ (SEQ ID NO: 747), probe 5′-FAM-[…]-TAMRA-3′ (SEQ ID NO: 748); (Glut4): forward 5′-GGCCTCCGCAGGTTCTG-3′ (SEQ ID NO: 749), reverse 5′-[…]-3′ (SEQ ID NO: 750), probe 5′-FAM-[…]-TAMRA-3′ (SEQ ID NO: 751); (HSL): forward 5′-ACCTGCGCACAATGACACA-3′ (SEQ ID NO: 752), reverse 5′-[…]-3′ (SEQ ID NO: 753), probe 5′-FAM-[…]-TAMRA-3′ (SEQ ID NO: 754); (PPAR-γ): forward 5′-[…]-3′ (SEQ ID NO: 755), reverse 5′-[…]-3′ (SEQ ID NO: 756), probe 5′-FAM-[…]-TAMRA-3′ (SEQ ID NO: 757). The amount of total RNA in each sample is determined using a Ribogreen Assay (Molecular Probes, Eugene, Oreg.), and expression levels of the adipocyte differentiation hallmark genes were normalized to total RNA.

HSL = HSL mRNA expression in adipocytes (real-time PCR)
Method: as §1, §2

Glut4 = Glut4 mRNA expression in adipocytes (real-time PCR)
Method: as §1, §2

PPARγ = PPARγ mRNA expression in adipocytes (real-time PCR)
Method: as §1, §2

adipocytes = assay: Triglyceride accumulation assay in adipocytes
Method: The triglyceride accumulation assay measures the synthesis of triglyceride by adipocytes. Triglyceride accumulation is measured using the Infinity™ Triglyceride reagent kit (Sigma-Aldrich, St. Louis, Mo.). On day nine post-transfection, cells are washed and lysed at room temperature, and the triglyceride assay reagent is added. Triglyceride accumulation is measured based on the amount of glycerol liberated from triglycerides by the enzyme lipoprotein lipase. Liberated glycerol is phosphorylated by glycerol kinase, and hydrogen peroxide is generated during the oxidation of glycerol-1-phosphate to dihydroxyacetone phosphate by glycerol phosphate oxidase. Horseradish peroxidase (HRP) uses H2O2 to oxidize 4-aminoantipyrine and 3,5 dichloro-2-hydroxybenzene sulfonate to produce a red-colored dye. Dye absorbance, which is proportional to the concentration of glycerol, is measured at 515 nm using an UV spectrophotometer. Glycerol concentration is calculated from a standard curve for each assay, and data are normalized to total cellular protein as determined by a Bradford assay (Bio-Rad Laboratories, Hercules, Calif.).
An increase in triglyceride content is another well-established marker for adipocyte differentiation. The triglyceride accumulation assay measures the synthesis of triglyceride by adipocytes. Triglyceride accumulation was measured using the Infinity™ Triglyceride reagent kit (Sigma-Aldrich, St. Louis, Mo.). Human white preadipocytes (Zen-Bio Inc., Research Triangle Park, N.C.) were grown in preadipocyte media (ZenBio Inc.). One day before transfection, 96-well plates were seeded with 3000 cells/well. Cells were transfected according to standard published procedures with 250 nM oligomeric compound in LIPOFECTIN™ (Invitrogen Corporation, Carlsbad, Calif.) (Monia et al., J. Biol. Chem. 1993 268(19):14514-22). Oligomeric compounds were tested in triplicate on each 96-well plate, and the effects of TNF-α, a positive drug control that inhibits adipocyte differentiation, were also measured in triplicate. Negative and transfectant-only controls may be measured up to six times per plate. After the cells have reached confluence (approximately three days), they were exposed to differentiation media (Zen-Bio, Inc.) containing a PPAR-γ agonist, IBMX, dexamethasone, and insulin for three days. Cells were then fed adipocyte media (Zen-Bio, Inc.), which was replaced at 2 to 3 day intervals. […] Triglyceride accumulation was measured based on the amount of glycerol liberated from triglycerides by the enzyme lipoprotein lipase. Liberated glycerol is phosphorylated by glycerol kinase, and hydrogen peroxide is generated during the oxidation of glycerol-1-phosphate to dihydroxyacetone phosphate by glycerol phosphate oxidase. Horseradish peroxidase (HRP) uses H2O2 to oxidize 4-aminoantipyrine and 3,5 dichloro-2-hydroxybenzene sulfonate to produce a red-colored dye. Dye absorbance, which is proportional to the concentration of glycerol, was measured at 515 nm using an UV spectrophotometer. Glycerol concentration was calculated from a standard curve for each assay, and data were normalized to total cellular protein as determined by a Bradford assay (Bio-Rad Laboratories, Hercules, Calif.). Results are expressed as a percent±standard deviation relative to transfectant-only control.

[1] = differentiating adipocytes transfected with oligomeric compound
[2] = differentiating adipocytes transfected with oligomeric compound, Table 75
[3] = Table 18, differentiating adipocytes, control = treatment with ISIS 342673

Substance | aP2 mRNA (aP2; [1]) | HSL mRNA (HSL; [2]) | GLUT4 mRNA (Glut4; [2]) | PPAR gamma mRNA (PPARγ; [2]) | TG (triglyceride accumulation) (adipocytes; [2]) | AP2 mRNA (aP2; [1]) | HSL mRNA (HSL; [1]) | GLUT4 mRNA (Glut4; [1]) | PPAR gamma mRNA (PPARγ; [1]) | TG (triglyceride accumulation) (adipocytes; [1]) | AP2 mRNA (aP2; [3]) | HSL mRNA (HSL; [3]) | GLUT4 mRNA (Glut4; [3]) | PPAR gamma mRNA (PPARγ; [3]) | TG (triglyceride accumulation) (adipocytes; [3])
328092 (antisense eG*eG*eT*eA*eG*eG*eT*eG*eG*eA*eA*eT*eA*e[5mC]*eT*eA*eT*eA*eA*e[5mC]*eA) [compound 328092] | 74 percentage of untreated control (UTC) | 80 percentage of untreated control (UTC) | 78 percentage of untreated control (UTC) | 86 percentage of untreated control (UTC) | 134 percentage of untreated control (UTC) | – | – | – | – | – | – | – | – | – | –
328093 (antisense eT*eA*eA*eA*e[5mC]*eA*eT*e[5mC]*eA*e[5mC]*eT*eG*e[5mC]*eA*eA*eG*eT*e[5mC]*eT*eT*eA) [compound 328093] | – | – | – | – | – | 97 percentage of untreated control (UTC) | 89 percentage of untreated control (UTC) | 73 percentage of untreated control (UTC) | 99 percentage of untreated control (UTC) | 59 percentage of untreated control (UTC) | – | – | – | – | –
328094 (antisense eT*eT*eG*eT*eA*eA*eG*e[5mC]*eA*eG*eT*eT*eT*eT*eG*eT*eT*eG*eA*e[5mC]*eA) [compound 328094] | 68 percentage of untreated control (UTC) | 74 percentage of untreated control (UTC) | 83 percentage of untreated control (UTC) | 94 percentage of untreated control (UTC) | 65 percentage of untreated control (UTC) | – | – | – | – | – | – | – | – | – | –
328095 (antisense eT*e[5mC]*eA*e[5mC]*eA*eG*eA*eG*eA*eA*eA*eA*e[5mC]*eA*eA*e[5mC]*eT*eG*eG*eT*eA) [compound 328095] | 70 percentage of untreated control (UTC) | 83 percentage of untreated control (UTC) | 98 percentage of untreated control (UTC) | 92 percentage of untreated control (UTC) | 110 percentage of untreated control (UTC) | – | – | – | – | – | – | – | – | – | –
328096 (antisense e[5mC]*e[5mC]*eT*e[5mC]*eT*e[5mC]*eA*eA*eA*eG*eA*eT*eT*eT*e[5mC]*e[5mC]*eT*eG*eT*e[5mC]*eA) [compound 328096] | 71 percentage of untreated control (UTC) | 76 percentage of untreated control (UTC) | 79 percentage of untreated control (UTC) | 89 percentage of untreated control (UTC) | 74 percentage of untreated control (UTC) | – | – | – | – | – | – | – | – | – | –
328097 (antisense eT*eG*eT*e[5mC]*eA*eG*eA*eT*eA*eA*eA*e[5mC]*eA*eG*eA*eG*eT*eG*eG*eA*eA) [compound 328097] | 48 percentage of untreated control (UTC) | 54 percentage of untreated control (UTC) | 62 percentage of untreated control (UTC) | 63 percentage of untreated control (UTC) | 65 percentage of untreated control (UTC) | – | – | – | – | – | – | – | – | – | –
328098 (antisense eG*eA*eG*eA*eA*eT*e[5mC]*eA*eA*eT*eA*eG*eG*eG*e[5mC]*eA*eT*eG*e[5mC]*eA*eA) [compound 328098] | 23 percentage of untreated control (UTC) | 28 percentage of untreated control (UTC) | 25 percentage of untreated control (UTC) | 54 percentage of untreated control (UTC) | 39 percentage of untreated control (UTC) | – | – | – | – | – | – | – | – | – | –
328099 (antisense eA*eA*eG*eA*eA*e[5mC]*eA*eT*eT*eA*eA*eG*e[5mC]*eA*eT*e[5mC]*eT*eG*eA*e[5mC]*eA) [compound 328099] | 80 percentage of untreated control (UTC) | 74 percentage of untreated control (UTC) | 61 percentage of untreated control (UTC) | 72 percentage of untreated control (UTC) | 57 percentage of untreated control (UTC) | – | – | – | – | – | 85.9 percentage of control | 88.4 percentage of control | 86.8 percentage of control | 81.9 percentage of control | 93.9 percentage of control
328100 (antisense eA*eA*eT*e[5mC]*eT*e[5mC]*eT*eG*e[5mC]*eA*eG*eG*e[5mC]*eA*eA*eA*eT*eG*eT*eG*eA) [compound 328100] | 47 percentage of untreated control (UTC) | 49 percentage of untreated control (UTC) | 39 percentage of untreated control (UTC) | 48 percentage of untreated control (UTC) | 20 percentage of untreated control (UTC) | – | – | – | – | – | 61.9 percentage of control | 72.0 percentage of control | 74.2 percentage of control | 66.7 percentage of control | 71.5 percentage of control
328101 (antisense eA*eA*eA*e[5mC]*e[5mC]*e[5mC]*e[5mC]*eT*eA*eT*e[5mC]*eA*e[5mC]*eG*eA*eT*eT*eA*eG*e[5mC]*eA) [compound 328101] | 83 percentage of untreated control (UTC) | 78 percentage of untreated control (UTC) | 57 percentage of untreated control (UTC) | 70 percentage of untreated control (UTC) | 67 percentage of untreated control (UTC) | – | – | – | – | – | 83.2 percentage of control | 91.8 percentage of control | 84.7 percentage of control | 79.3 percentage of control | 108.6 percentage of control
328102 (antisense eG*e[5mC]*e[5mC]*e[5mC]*e[5mC]*eA*eT*eT*eA*eA*eT*eA*eT*eT*eT*eT*eA*eA*e[5mC]*e[5mC]*eA) [compound 328102] | 96 percentage of untreated control (UTC) | 99 percentage of untreated control (UTC) | 58 percentage of untreated control (UTC) | 94 percentage of untreated control (UTC) | 70 percentage of untreated control (UTC) | – | – | – | – | – | 87.9 percentage of control | 97.0 percentage of control | 79.2 percentage of control | 93.7 percentage of control | 95.9 percentage of control
